This is an account of results in US20260241012A1, “1,8-NAPHTHYRIDIN-2-ONE HETEROBIFUNCTIONAL BCL6 DEGRADERS” (Treeline Biosciences, Inc., priority 2022, published 2026).

This assay has as its target T1, N-terminal HiBiT tagged BCL6 (Homo sapiens, UniProt P41182).
T1 construct: expressed in transfected cells; host or cells: HT1080 (ATCC CCL-121), stably transduced with lentivirus pLV-UBC-N-HiBiT-BCL6-PGK-puro
Description: HiBiT based degradation assay. It counts as cell-based. Conditions: HT1080 cells expressing N-terminal HiBiT tagged BCL6, 5 hours of incubation; for Ymin (5 hr): BCL6 degradation normalized with DMSO control; for DC50: four-parameter logistic model, read-out: EC50 (5 hr). An excerpt: Human BCL6 protein coding open reading frame fused with N-terminal HiBiT coding sequence was synthesized from Integrated DNA Technologies (IDT). Next, the N-HiBiT-BCL6 sequence was cloned into pLV-UBC-PGK-Puro, a lentivirus plasmid purchased from Vectorbuilder, to generate pLV-UBC-N-HiBiT-BCL6-PGK-puro. Lentiviral particles were generated from Lenti-X™ 293T cells (Clontech) by co-transfection of pLV-UBC-N-HiBiT-BCL6-PGK-puro plasmids and lentiviral packaging plasmid mix (Cellecta). HT1080 [HT1080] (ATCC CCL-121) cells were infected with the lentivirus, and HT1080 cells stably integrated with the lentiviral vectors were established by incubation with 1 μg/mL puromycin (Thermofisher).
HT1080 cells expressing N-terminal HiBiT tagged BCL6 were dispensed into a 384-well plate pre-spotted with compounds at varying concentrations. Five thousand cells were seeded into each well in 40 μL of RPMI 1640 media plus 10% Fetal Bovine Serum (10082-147, Thermofisher). After 5 hours of incubation at 37° C. with 5% CO2, 30 μL of the NANO-GLOR HiBiT Lytic Detection System working solution (Promega) was added to each well and incubated at room temperature for 15 min. After incubation, luminescence was read on a PHERAstar FSX Plate Reader (BMG). BCL6 degradation at each indicated concentration was normalized with DMSO control. The BCL6 degradation curves were plotted using a four-parameter logistic model.

In the case of `CNC(=O)COc1cc2cc(Nc3nc(N4CC5(CC[C@H](Nc6ccc7c(C8CCC(=O)NC8=O)nn(C)c7c6)[C@@H](C)C5)C4)ncc3Cl)cnc2n(C)c1=O` (single isomer, unassigned) [Compound 156a], the “Ymin (5 hr)” value is “++++ (Ymin < 30%)” and the DC50 is less than 10 nM.
For `CNC(=O)COc1cc2cc(Nc3nc(N4CC5(CC[C@@H](Nc6ccc7c(C8CCC(=O)NC8=O)nn(C)c7c6)[C@@H](C)C5)C4)ncc3Cl)cnc2n(C)c1=O` (single isomer, unassigned) [Compound 156c], the “Ymin (5 hr)” value is “++++ (Ymin < 30%)” and the DC50 is less than 10 nM.
As for `CNC(=O)COc1cc2cc(Nc3nc(N4CC5(CC[C@H](Oc6ccc7c(C8CCC(=O)NC8=O)nn(C)c7c6)[C@H](C)C5)C4)ncc3Cl)cnc2n(C(C)C)c1=O` (single isomer, unassigned) [Compound 185a], the “Ymin (5 hr)” value is listed as “++++ (Ymin < 30%)” and the DC50 is less than 10 nM.
`CNC(=O)COc1cc2cc(Nc3nc(N4CCC([C@@H](C)N5CCN(c6cccc7c(C8CCC(=O)NC8=O)nn(C)c67)CC5)CC4)ncc3Cl)cnc2n(C(C)C)c1=O` (single isomer, unassigned) [Compound 193a]: the “Ymin (5 hr)” value is on record as “+++ (30% ≤ Ymin < 50%)” and the DC50 lay in the range of 10 to 100 nM.
As for `CNC(=O)COc1cc2cc(Nc3nc(N4CCC([C@H](C)N5CCN(c6cccc7c(C8CCC(=O)NC8=O)nn(C)c67)CC5)CC4)ncc3Cl)cnc2n(C(C)C)c1=O` (single isomer, unassigned) [Compound 193b], the “Ymin (5 hr)” value was “++++ (Ymin < 30%)” and the DC50 was 10 to 100 nM.
On to `CNC(=O)COc1cc2cc(Nc3nc(N4CCC([C@@](C)(O)C5CCN(c6cccc7c(C8CCC(=O)NC8=O)nn(C)c67)CC5)CC4)ncc3Cl)cnc2n(C(C)C)c1=O` (single isomer, unassigned) [Compound 194a], for which the “Ymin (5 hr)” value is “++++ (Ymin < 30%)” and the DC50 lay within 10 to 100 nM.
For `CNC(=O)COc1cc2cc(Nc3nc(N4CCN([C@@H](C)C5CCN(c6cccc7c(C8CCC(=O)NC8=O)nn(C)c67)CC5)CC4)ncc3Cl)cnc2n(C(C)C)c1=O` (single isomer, unassigned) [Compound 195a], the “Ymin (5 hr)” value is “++++ (Ymin < 30%)” and the DC50 lay within 10 to 100 nM.
On the same counts, the results for `CNC(=O)COc1cc2cc(Nc3nc(N4CCN([C@H](C)C5CCN(c6cccc7c(C8CCC(=O)NC8=O)nn(C)c67)CC5)CC4)ncc3Cl)cnc2n(C(C)C)c1=O` (single isomer, unassigned) [Compound 195b] are “+++ (30% ≤ Ymin < 50%)” and 10 to 100 nM.
For the molecule `CNC(=O)COc1cc2cc(Nc3nc(N4CCC([C@@](C)(O)C5CCN(c6ccc7c(C8CCC(=O)NC8=O)nn(C)c7c6)CC5)CC4)ncc3Cl)cnc2n(C(C)C)c1=O` (single isomer, unassigned) [Compound 201a], the “Ymin (5 hr)” value is recorded as “++ (50% ≤ Ymin < 70%)” and the DC50 was less than 10 nM.
On to `CNC(=O)COc1cc2cc(Nc3nc(N4CCC([C@](C)(O)C5CCN(c6ccc7c(C8CCC(=O)NC8=O)nn(C)c7c6)CC5)CC4)ncc3Cl)cnc2n(C(C)C)c1=O` (single isomer, unassigned) [Compound 201b], for which the “Ymin (5 hr)” value is on record as “+++ (30% ≤ Ymin < 50%)” and the DC50 was less than 10 nM.
For `CNC(=O)COc1cc2cc(Nc3nc(N4CCC([C@](C)(O)C5CCN(c6cccc7c(C8CCC(=O)NC8=O)nn(C)c67)CC5)CC4)ncc3Cl)cnc2n(C(C)C)c1=O` (stereo in doubt) [Compound 194b, rel-2-((6-((5-chloro-2-(4-((1R)-1-(1-(3-(2,6-dioxopiperidin-3-yl)-1-methyl-1H-indazol-7-yl)piperidin-4-yl)-1-hydroxyethyl)piperidin-1-yl)pyrimidin-4-yl)amino)-1-isopropyl-2-oxo-1,2-dihydro-1,8-naphthyridin-3-yl)oxy)-N-methylacetamide], the “Ymin (5 hr)” value was “+++ (30% ≤ Ymin < 50%)” and the DC50 fell in the range of 10 to 100 nM.
Take `CNC(=O)COc1cc2cc(Nc3nc(N4CCN(CC5CCN(c6cccc7c(C8CCC(=O)NC8=O)nn(C)c67)CC5)CC4)ncc3Cl)cnc2n(C)c1=O` (centres unmarked) [Compound 101, 2-((6-((5-chloro-2-(4-((1-(3-(2,6-dioxopiperidin-3-yl)-1-methyl-1H-indazol-7-yl)piperidin-4-yl)methyl)piperazin-1-yl)pyrimidin-4-yl)amino)-1-methyl-2-oxo-1,2-dihydro-1,8-naphthyridin-3-yl)oxy)-N-methylacetamide]: the “Ymin (5 hr)” value was “++++ (Ymin < 30%)” and the DC50 was less than 10 nM.
On the same counts, the results for `CNC(=O)COc1cc2cc(Nc3nc(N4CCN(CC5CCN(c6cccc7c6C(=O)N(C6CCC(=O)NC6=O)C7=O)CC5)CC4)ncc3Cl)cnc2n(C)c1=O` (centres unmarked) [Compound 102, 2-((6-((5-chloro-2-(4-((1-(2-(2,6-dioxopiperidin-3-yl)-1,3-dioxoisoindolin-4-yl)piperidin-4-yl)methyl)piperazin-1-yl)pyrimidin-4-yl)amino)-1-methyl-2-oxo-1,2-dihydro-1,8-naphthyridin-3-yl)oxy)-N-methylacetamide] are “++++ (Ymin < 30%)” and 10 to 100 nM.
Turning to `CNC(=O)COc1cc2cc(Nc3nc(N4CCN(CC5CCN(c6cccc7c(C8CCC(=O)NC8=O)nn(C)c67)CC5)CC4)ncc3Cl)cnc2n(C(C)C)c1=O` (centres unmarked) [Compound 103, 2-((6-((5-chloro-2-(4-((1-(3-(2,6-dioxopiperidin-3-yl)-1-methyl-1H-indazol-7-yl)piperidin-4-yl)methyl)piperazin-1-yl)pyrimidin-4-yl)amino)-1-isopropyl-2-oxo-1,2-dihydro-1,8-naphthyridin-3-yl)oxy)-N-methylacetamide], the “Ymin (5 hr)” value is on record as “++++ (Ymin < 30%)” and the DC50 was in the range of 10 to 100 nM.
`CNC(=O)COc1cc2cc(Nc3nc(N4CCN(CC5CCN(c6ccc7c(C8CCC(=O)NC8=O)nn(C)c7c6)CC5)CC4)ncc3Cl)cnc2n(C(C)C)c1=O` (centres unmarked) [Compound 104, 2-((6-((5-chloro-2-(4-((1-(3-(2,6-dioxopiperidin-3-yl)-1-methyl-1H-indazol-6-yl)piperidin-4-yl)methyl)piperazin-1-yl)pyrimidin-4-yl)amino)-1-isopropyl-2-oxo-1,2-dihydro-1,8-naphthyridin-3-yl)oxy)-N-methylacetamide]: the “Ymin (5 hr)” value is “+++ (30% ≤ Ymin < 50%)” and the DC50 was less than 10 nM.
On to `CNC(=O)COc1cc2cc(Nc3nc(N4CCN(CC5CCN(c6cccc7c(C8CCC(=O)NC8=O)nn(C)c67)CC5)[C@@H](C)C4)ncc3Cl)cnc2n(C(C)C)c1=O` (stereo partly drawn) [Compound 105a, 2-((6-((5-chloro-2-((3S)-4-((1-(3-(2,6-dioxopiperidin-3-yl)-1-methyl-1H-indazol-7-yl)piperidin-4-yl)methyl)-3-methylpiperazin-1-yl)pyrimidin-4-yl)amino)-1-isopropyl-2-oxo-1,2-dihydro-1,8-naphthyridin-3-yl)oxy)-N-methylacetamide], for which the “Ymin (5 hr)” value is “++++ (Ymin < 30%)” and the DC50 is 10 to 100 nM.
Turning to `CNC(=O)COc1cc2cc(Nc3nc(N4CCN(CC5CCN(c6ccc7c(C8CCC(=O)NC8=O)nn(C)c7c6)CC5)[C@@H](C)C4)ncc3Cl)cnc2n(C(C)C)c1=O` (stereo partly drawn) [Compound 106a, 2-((6-((5-chloro-2-((3S)-4-((1-(3-(2,6-dioxopiperidin-3-yl)-1-methyl-1H-indazol-6-yl)piperidin-4-yl)methyl)-3-methylpiperazin-1-yl)pyrimidin-4-yl)amino)-1-isopropyl-2-oxo-1,2-dihydro-1,8-naphthyridin-3-yl)oxy)-N-methylacetamide], the “Ymin (5 hr)” value is on record as “++ (50% ≤ Ymin < 70%)” and the DC50 was less than 10 nM.
As for `CNC(=O)COc1cc2cc(Nc3nc(N4CCN(CC5CCN(c6ccc7c(C8CCC(=O)NC8=O)nn(C)c7c6)CC5)CC4)ncc3Cl)cnc2n(C)c1=O` (centres unmarked) [Compound 107, 2-((6-((5-chloro-2-(4-((1-(3-(2,6-dioxopiperidin-3-yl)-1-methyl-1H-indazol-6-yl)piperidin-4-yl)methyl)piperazin-1-yl)pyrimidin-4-yl)amino)-1-methyl-2-oxo-1,2-dihydro-1,8-naphthyridin-3-yl)oxy)-N-methylacetamide], the “Ymin (5 hr)” value is recorded as “+++ (30% ≤ Ymin < 50%)” and the DC50 is less than 10 nM.
On the same counts, the results for `CNC(=O)COc1cc2cc(Nc3nc(N4CCN(CC5CCN(c6cccc7c(N8CCC(=O)NC8=O)nn(C)c67)CC5)CC4)ncc3Cl)cnc2n(C(C)C)c1=O` [Compound 109, 2-((6-((5-chloro-2-(4-((1-(3-(2,4-dioxotetrahydropyrimidin-1 (2H)-yl)-1-methyl-1H-indazol-7-yl)piperidin-4-yl)methyl)piperazin-1-yl)pyrimidin-4-yl)amino)-1-isopropyl-2-oxo-1,2-dihydro-1,8-naphthyridin-3-yl)oxy)-N-methylacetamide] are “+++ (30% ≤ Ymin < 50%)” and 10 to 100 nM.
